Laboratory results from ChEMBL document CHEMBL5620355, “Discovery of intracellular self-assembly protein degraders driven by tumor-specific activatable bioorthogonal reaction” (Eur J Med Chem, 2023).
Activity calls are given as the source filed them. No cut-off for these calls is given here.

What was measured:
U-87 MG [1] = assay: Antiproliferative activity against human U87 cells incubated for 48 hrs by MTT assay; assay type: functional, cell-based, U-87MG ATCC
A549 [2] = assay: Antiproliferative activity against human A549 cells incubated for 48 hrs by MTT assay; assay type: functional, cell-based; details: A549, 48 h
HEK293 [3] = assay: Cytotoxicity against HEK293 cells at low concentration incubated for 48 hrs by MTT assay; assay type: toxicity, cell-based; details: human, hek293, 48 h
HEK293 [4] = assay: Cytotoxicity against HEK293 cells at high concentration incubated for 48 hrs by MTT assay; assay type: toxicity, cell-based; details: human, hek293, 48 h
[5] = Stability of compound in DMEM medium by HPLC analysis; assay type: physicochemical
U-87 MG [6] = assay: Antiproliferative activity against human U87 cells incubated for 48 hrs in presence of 4-(4-(3-(4-chloro-3-(trifluoromethyl)phenyl)ureido)phenoxy)-N-(prop-2-yn-1-yl)picolinamide by MTT assay; assay type: functional, cell-based, U-87MG ATCC
A549 [7] = assay: Antiproliferative activity against human A549 cells incubated for 48 hrs in presence of 4-(4-(3-(4-chloro-3-(trifluoromethyl)phenyl)ureido)phenoxy)-N-(prop-2-yn-1-yl)picolinamide by MTT assay; assay type: functional, cell-based; details: A549, 48 h
HEK293 [8] = assay: Cytotoxicity against HEK293 cells incubated for 48 hrs by MTT assay; assay type: toxicity, cell-based; details: human, hek293, 48 h
HEK293 [9] = assay: Cytotoxicity against HEK293 cells at low concentration incubated for 48 hrs in presence of 4-(4-(3-(4-chloro-3-(trifluoromethyl)phenyl)ureido)phenoxy)-N-(prop-2-yn-1-yl)picolinamide by MTT assay; assay type: toxicity, cell-based; details: human, hek293, 48 h
HEK293 [10] = assay: Cytotoxicity against HEK293 cells at high concentration incubated for 48 hrs in presence of 4-(4-(3-(4-chloro-3-(trifluoromethyl)phenyl)ureido)phenoxy)-N-(prop-2-yn-1-yl)picolinamide by MTT assay; assay type: toxicity, cell-based; details: human, hek293, 48 h
[11] = target: Vascular endothelial growth factor receptor 2 (Homo sapiens) (UniProt P35968); assay: Induction of VEGFR2 degradation in human U87 cells upto 10 uM incubated for 48 hrs by Western blot analysis; assay type: cell-based
Sequence of Vascular endothelial growth factor receptor 2 (Homo sapiens) (P35968 whole entry): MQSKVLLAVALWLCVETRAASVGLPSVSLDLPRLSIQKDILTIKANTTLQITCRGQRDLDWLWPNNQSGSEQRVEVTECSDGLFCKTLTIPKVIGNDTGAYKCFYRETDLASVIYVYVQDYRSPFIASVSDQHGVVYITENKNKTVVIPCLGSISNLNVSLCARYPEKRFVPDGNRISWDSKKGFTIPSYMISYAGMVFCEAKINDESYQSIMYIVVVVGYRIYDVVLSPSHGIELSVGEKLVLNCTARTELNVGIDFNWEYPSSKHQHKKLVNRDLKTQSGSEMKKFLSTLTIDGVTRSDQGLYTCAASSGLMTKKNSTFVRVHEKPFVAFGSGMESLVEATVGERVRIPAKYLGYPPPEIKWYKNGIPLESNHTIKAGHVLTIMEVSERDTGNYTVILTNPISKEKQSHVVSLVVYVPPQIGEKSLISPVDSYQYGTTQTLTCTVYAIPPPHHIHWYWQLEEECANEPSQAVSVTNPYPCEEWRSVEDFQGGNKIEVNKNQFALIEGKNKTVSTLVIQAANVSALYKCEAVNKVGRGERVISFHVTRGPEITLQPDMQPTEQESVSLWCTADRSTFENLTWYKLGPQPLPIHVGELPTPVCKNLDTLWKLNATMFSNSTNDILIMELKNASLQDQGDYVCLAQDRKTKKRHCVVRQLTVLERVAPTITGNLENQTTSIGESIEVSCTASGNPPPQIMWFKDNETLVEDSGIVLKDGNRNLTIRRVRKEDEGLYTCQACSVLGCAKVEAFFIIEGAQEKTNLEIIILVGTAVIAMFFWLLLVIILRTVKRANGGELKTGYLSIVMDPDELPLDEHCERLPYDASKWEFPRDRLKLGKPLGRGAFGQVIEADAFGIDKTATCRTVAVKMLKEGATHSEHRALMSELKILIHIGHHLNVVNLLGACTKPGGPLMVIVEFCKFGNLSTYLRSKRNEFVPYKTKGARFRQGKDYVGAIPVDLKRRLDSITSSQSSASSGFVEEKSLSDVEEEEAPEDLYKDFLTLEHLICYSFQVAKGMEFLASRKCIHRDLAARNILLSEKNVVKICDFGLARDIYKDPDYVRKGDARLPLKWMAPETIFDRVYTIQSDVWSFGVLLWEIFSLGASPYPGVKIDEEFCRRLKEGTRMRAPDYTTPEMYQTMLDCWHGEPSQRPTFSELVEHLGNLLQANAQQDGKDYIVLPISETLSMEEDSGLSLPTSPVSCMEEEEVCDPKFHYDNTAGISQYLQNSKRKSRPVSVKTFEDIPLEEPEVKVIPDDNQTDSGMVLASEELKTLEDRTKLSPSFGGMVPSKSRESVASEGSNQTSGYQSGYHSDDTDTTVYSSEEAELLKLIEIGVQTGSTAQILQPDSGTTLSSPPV

[12] = target: Platelet-derived growth factor receptor beta (Homo sapiens) (UniProt P09619); assay: Induction of PDGFR-beta degradation in human U87 cells upto 10 uM incubated for 48 hrs by Western blot analysis; assay type: cell-based
Sequence of Platelet-derived growth factor receptor beta (Homo sapiens) (P09619 whole entry): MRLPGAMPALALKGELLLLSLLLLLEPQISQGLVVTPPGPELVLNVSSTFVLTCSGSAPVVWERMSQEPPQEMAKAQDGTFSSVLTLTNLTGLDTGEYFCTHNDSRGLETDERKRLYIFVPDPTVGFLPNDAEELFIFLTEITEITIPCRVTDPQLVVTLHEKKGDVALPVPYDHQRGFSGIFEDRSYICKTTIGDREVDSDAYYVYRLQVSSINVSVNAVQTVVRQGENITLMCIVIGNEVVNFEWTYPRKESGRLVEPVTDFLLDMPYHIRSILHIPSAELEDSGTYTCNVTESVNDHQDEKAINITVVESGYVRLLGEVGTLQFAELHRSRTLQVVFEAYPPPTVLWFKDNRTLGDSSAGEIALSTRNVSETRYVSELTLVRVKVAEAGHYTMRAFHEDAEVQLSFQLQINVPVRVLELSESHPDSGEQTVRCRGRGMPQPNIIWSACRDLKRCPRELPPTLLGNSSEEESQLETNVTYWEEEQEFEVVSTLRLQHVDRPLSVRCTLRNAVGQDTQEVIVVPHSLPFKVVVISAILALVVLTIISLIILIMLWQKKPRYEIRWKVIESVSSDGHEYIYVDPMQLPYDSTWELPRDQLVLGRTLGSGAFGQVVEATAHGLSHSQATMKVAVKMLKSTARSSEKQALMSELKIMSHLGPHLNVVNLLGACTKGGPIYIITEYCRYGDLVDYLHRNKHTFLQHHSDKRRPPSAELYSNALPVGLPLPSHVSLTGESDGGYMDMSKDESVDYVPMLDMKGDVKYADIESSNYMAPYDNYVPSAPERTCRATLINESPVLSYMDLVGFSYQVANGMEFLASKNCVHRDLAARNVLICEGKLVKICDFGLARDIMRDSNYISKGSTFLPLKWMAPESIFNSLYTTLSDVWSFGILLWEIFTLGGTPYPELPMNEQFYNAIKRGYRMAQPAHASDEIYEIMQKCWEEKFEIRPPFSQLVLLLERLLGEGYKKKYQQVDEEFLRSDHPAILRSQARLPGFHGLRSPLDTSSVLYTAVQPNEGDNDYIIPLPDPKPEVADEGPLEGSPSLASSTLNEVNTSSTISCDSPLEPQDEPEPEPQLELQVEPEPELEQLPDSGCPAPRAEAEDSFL

[13] = target: T1, Ephrin type-B receptor 4 (Homo sapiens) (UniProt P54760); assay: Induction of EphB4 degradation in human U87 cells upto 10 uM incubated for 48 hrs by Western blot analysis; assay type: cell-based
T1 sequence (whole entry): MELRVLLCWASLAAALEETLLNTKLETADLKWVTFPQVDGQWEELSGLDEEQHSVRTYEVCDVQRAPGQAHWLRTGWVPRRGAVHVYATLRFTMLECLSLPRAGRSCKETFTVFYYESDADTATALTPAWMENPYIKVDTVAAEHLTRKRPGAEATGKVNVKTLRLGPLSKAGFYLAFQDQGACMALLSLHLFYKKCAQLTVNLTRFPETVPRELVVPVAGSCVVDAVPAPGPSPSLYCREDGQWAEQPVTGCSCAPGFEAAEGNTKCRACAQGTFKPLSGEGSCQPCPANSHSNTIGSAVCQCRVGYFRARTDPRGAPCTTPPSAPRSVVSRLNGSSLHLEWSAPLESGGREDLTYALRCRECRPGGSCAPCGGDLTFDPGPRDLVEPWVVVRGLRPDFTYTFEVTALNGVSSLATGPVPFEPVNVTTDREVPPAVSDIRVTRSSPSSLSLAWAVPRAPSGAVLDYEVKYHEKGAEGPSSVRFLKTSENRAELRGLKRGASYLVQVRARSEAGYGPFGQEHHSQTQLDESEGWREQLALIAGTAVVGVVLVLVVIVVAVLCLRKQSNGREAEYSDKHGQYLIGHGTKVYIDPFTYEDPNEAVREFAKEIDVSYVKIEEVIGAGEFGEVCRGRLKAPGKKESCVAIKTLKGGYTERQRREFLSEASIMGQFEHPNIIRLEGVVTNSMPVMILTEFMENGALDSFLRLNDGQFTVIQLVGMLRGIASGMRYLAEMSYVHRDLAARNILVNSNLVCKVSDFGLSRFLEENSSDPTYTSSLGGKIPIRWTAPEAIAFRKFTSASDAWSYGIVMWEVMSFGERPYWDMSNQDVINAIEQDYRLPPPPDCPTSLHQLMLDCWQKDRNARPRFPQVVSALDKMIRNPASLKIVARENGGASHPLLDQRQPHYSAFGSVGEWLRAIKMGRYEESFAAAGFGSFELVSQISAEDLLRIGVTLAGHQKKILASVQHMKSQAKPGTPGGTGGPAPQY

[14] = target: Serine/threonine-protein kinase B-raf (Homo sapiens) (UniProt P15056); assay: Induction of BRAF degradation in human U87 cells upto 10 uM incubated for 48 hrs by Western blot analysis; assay type: cell-based
Sequence of Serine/threonine-protein kinase B-raf (Homo sapiens) (P15056 whole entry): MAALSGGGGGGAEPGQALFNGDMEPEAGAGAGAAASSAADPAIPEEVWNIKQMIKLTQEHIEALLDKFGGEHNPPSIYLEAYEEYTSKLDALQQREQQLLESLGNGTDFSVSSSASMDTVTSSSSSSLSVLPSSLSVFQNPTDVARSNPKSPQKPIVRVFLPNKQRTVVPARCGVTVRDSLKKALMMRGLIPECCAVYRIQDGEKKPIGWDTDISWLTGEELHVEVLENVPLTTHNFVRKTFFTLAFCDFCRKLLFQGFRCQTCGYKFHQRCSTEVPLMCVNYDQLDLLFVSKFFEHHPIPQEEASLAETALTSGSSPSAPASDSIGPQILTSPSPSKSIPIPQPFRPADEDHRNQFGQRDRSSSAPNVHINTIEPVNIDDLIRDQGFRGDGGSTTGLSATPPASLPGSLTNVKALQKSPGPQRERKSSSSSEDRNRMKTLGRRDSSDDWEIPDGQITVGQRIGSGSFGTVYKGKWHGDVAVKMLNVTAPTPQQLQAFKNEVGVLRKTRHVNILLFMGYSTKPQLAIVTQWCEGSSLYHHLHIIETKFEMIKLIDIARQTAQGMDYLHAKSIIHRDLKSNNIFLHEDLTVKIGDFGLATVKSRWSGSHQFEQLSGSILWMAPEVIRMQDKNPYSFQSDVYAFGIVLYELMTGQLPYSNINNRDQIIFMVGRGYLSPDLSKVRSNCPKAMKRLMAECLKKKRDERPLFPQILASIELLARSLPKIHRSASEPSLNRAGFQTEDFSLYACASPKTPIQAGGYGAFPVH

[15] = target: Vascular endothelial growth factor receptor 2 (Homo sapiens) (UniProt P35968); assay: Induction of VEGFR2 degradation in human U87 cells at 2 uM incubated for 48 hrs in presence of 4-(4-(3-(4-chloro-3-(trifluoromethyl)phenyl)ureido)phenoxy)-N-(prop-2-yn-1-yl)picolinamide by Western blot analysis; assay type: cell-based
[16] = target: T1, Ephrin type-B receptor 4 (Homo sapiens); assay: Induction of EphB4 degradation in human U87 cells at 2 uM incubated for 48 hrs in presence of 4-(4-(3-(4-chloro-3-(trifluoromethyl)phenyl)ureido)phenoxy)-N-(prop-2-yn-1-yl)picolinamide by Western blot analysis; assay type: cell-based
U-87 MG [17] = assay: Induction of cell cycle arrest at S phase in human U87 cells incubated for 48 hrs in presence of 4-(4-(3-(4-chloro-3-(trifluoromethyl)phenyl)ureido)phenoxy)-N-(prop-2-yn-1-yl)picolinamide by PI staining based flow cytometry; assay type: functional; details: U-87MG ATCC, dose 0.1-1 µM

| IC50 (U-87 MG [1]) [µM] | IC50 (A549 [2]) [µM] | Stability [5] | IC50 (U-87 MG [6]) [µM] | IC50 (A549 [7]) [µM] | Activity [11] | Activity [12] | Activity [13] | Activity [14] | Activity [15] | Activity [16] | SMILES | Activity (HEK293 [3]) | Activity (HEK293 [4]) | Activity (HEK293 [8]) | Activity (HEK293 [9]) | Activity (HEK293 [10]) | Activity (U-87 MG [17]) |
| --- | --- | --- | --- | --- | --- | --- | --- | --- | --- | --- | --- | --- | --- | --- | --- | --- | --- |
| 1.28 | 8.26 |  |  |  |  |  |  |  |  |  | CNC(=O)c1cc(Oc2ccc(NC(=O)Nc3ccc(Cl)c(C(F)(F)F)c3)cc2)ccn1 [SORAFENIB] | Non-Toxic | Toxic |  |  |  |  |
|  |  | Unstable |  |  |  |  |  |  |  |  | Nc1cccc2c1C(=O)N(C1CCC(=O)NC1=O)C2=O (stereo not given) [POMALIDOMIDE] |  |  |  |  |  |  |
| > 50 | > 50 | Stable | 16 | 1.06 | inactive | inactive | inactive | inactive | Active | Active | Cc1ncsc1-c1ccc(CNC(=O)[C@@H]2C[C@@H](O)CN2C(=O)[C@@H](NC(=O)CCCCN=[N+]=[N-])C(C)(C)C)cc1 |  |  | Non-Toxic | Non-Toxic | Toxic | Dose-Dependent Effect |
